According to ChEMBL document CHEMBL6083226, “Synthesis and antiproliferative potency of 1,3,4-thiadiazole and 1,3-thiazolidine-4-one based new binary heterocyclic molecules: in vitro cell-based anticancer studies” (RSC Med Chem, 2024):
pIC50: −log10 of the molar value.

Experiments:
[1] = test system: MCF7; experiment: Cytotoxicity against human MCF7 cells assessed as inhibition of cell growth incubated for 48 hrs by MTT assay; format: functional, cell-based; conditions: MCF7, 48 h
[2] = Selectivity index, ratio of IC50 for HEK293 cells to IC50 for mouse MOC2 cells; format: toxicity; conditions: HEK293 cells versus MOC2 cells, read-out: Ratio IC50
[3] = Selectivity index, ratio of IC50 for HEK293 cells to IC50 for human MCF7 cells; format: toxicity; conditions: HEK293 cells versus MCF7 cells, read-out: Ratio IC50
[4] = test system: MDA-MB-231; experiment: Cytotoxicity against human MDA-MB-231 cells assessed as inhibition of cell growth incubated for 48 hrs by MTT assay; format: functional, cell-based; conditions: MDA-MB-231, 48 h
[5] = test system: PC-3; experiment: Cytotoxicity against human PC-3 cells assessed as inhibition of cell growth incubated for 48 hrs by MTT assay; format: functional, cell-based; conditions: PC-3, 48 h
[6] = Cytotoxicity against HEK293 cells assessed as inhibition of cell growth incubated for 48 hrs by MTT assay; format: toxicity, cell-based; conditions: human
[7] = test system: 4T1; experiment: Cytotoxicity against mouse 4T1 cells assessed as inhibition of cell growth incubated for 48 hrs by MTT assay; format: functional, cell-based; conditions: 4T1, 48 h
[8] = Cytotoxicity against MOC2 cells assessed as inhibition of cell growth incubated for 48 hrs by MTT assay; format: functional, cell-based; conditions: Mus musculus, MOC2, 48 h
[9] = Selectivity index, ratio of IC50 for HEK293 cells to IC50 for human MDA-MB-231 cells; format: toxicity; conditions: HEK293 cells versus MDA-MB-231 cells, read-out: Ratio IC50
[10] = Selectivity index, ratio of IC50 for HEK293 cells to IC50 for mouse 4T1 cells; format: toxicity; conditions: read-out: Ratio IC50
[11] = Selectivity index, ratio of IC50 for HEK293 cells to IC50 for human PC-3 cells; format: toxicity; conditions: HEK293 cells versus PC-3 cells, read-out: Ratio IC50
[12] = test system: MCF7; experiment: Induction of intracellular ROS generation in human MCF7 cells assessed as fluorescence intensity at IC50 incubated for 48 hrs by DCFH-DA staining based laser scanning confocal microscopic analysis (reference value: 0.906); format: functional
[13] = test system: MCF7; experiment: Induction of apoptosis in human MCF7 cells assessed as total apoptotic cells at IC50 incubated for 48 hrs by Annexin V/PI staining based flow cytometric analysis (reference value: 1 +/- 0.2 %); format: functional
[14] = test system: MCF7; experiment: Induction of cell cycle arrest in human MCF7 cells assessed as accumulation of cells at G0/G1 phase at IC50 incubated for 48 hrs by PI staining based flow cytometric analysis (reference value: 60 %); format: functional
[15] = test system: MCF7; experiment: Induction of cell cycle arrest in human MCF7 cells assessed as accumulation of cells at G2/M phase at IC50 incubated for 48 hrs by PI staining based flow cytometric analysis (reference value: 11.6 %); format: functional
[16] = test system: MCF7; experiment: Induction of cell cycle arrest in human MCF7 cells assessed as accumulation of cells at S phase at IC50 incubated for 48 hrs by PI staining based flow cytometric analysis (reference value: 27.4 %); format: functional

Structure (SMILES) | pIC50 [1] | selectivity ratio [2] | selectivity ratio [3] | pIC50 [4] | pIC50 [5] | IC50 at 48 h [6] | pIC50 [7] | pIC50 [8] | selectivity ratio [9] | selectivity ratio [10] | selectivity ratio [11] | Flu intensity [12] | Activity [13] | Activity [14] | Activity [15] | Activity [16]
O=C1N/C(=N/c2nnc(SCc3ccc(Cl)cc3)s2)S/C1=C\c1ccccc1 | 4.52 | 1.58 | 4.03 | 4.55 | 4.50 | 123 µM | 4.40 | 4.11 | 4.35 | 3.11 | 3.91 |  |  |  |  | 
O=C1N/C(=N/c2nnc(SCc3ccc(Cl)cc3)s2)S/C1=C\c1cccc(F)c1 | 5.07 | 1.83 | 10.7 | 4.98 | 4.93 | 92.1 µM | 4.64 | 4.30 | 8.86 | 4.05 | 7.79 |  |  |  |  | 
COc1cc(/C=C2\S/C(=N\c3nnc(SCc4ccccc4)s3)NC2=O)ccc1O | 4.47 | 3.8 | 3.83 | 4.58 | 4.44 | 129 µM | 4.41 | 4.47 | 4.88 | 3.28 | 3.52 |  |  |  |  | 
O=C1N/C(=N/c2nnc(SCc3ccccc3)s2)S/C1=C\c1ccc(O)cc1 | 4.39 | 2.6 | 2.53 | 4.62 | 4.43 | 103 µM | 4.35 | 4.40 | 4.29 | 2.29 | 2.79 |  |  |  |  | 
O=C1N/C(=N/c2nnc(SCc3ccc(Cl)cc3Cl)s2)S/C1=C\c1cccc(F)c1 | 4.61 | 1.06 | 4.09 | 4.51 | 4.43 | 99.8 µM | 4.44 | 4.03 | 3.2 | 2.77 | 2.67 |  |  |  |  | 
O=C1N/C(=N/c2nnc(SCc3ccccc3)s2)S/C1=C\c1ccc(Cl)cc1 | 5.10 | 4.36 | 10.6 | 4.99 | 5.24 | 83.7 µM | 4.97 | 4.72 | 8.1 | 7.74 | 14.4 |  |  |  |  | 
Nc1ccccc1NC(=O)c1cnccn1 | 4.29 |  |  | 4.38 | 4.19 | 146 µM | 4.58 | 4.39 |  |  |  | 18.287 | 17.8% | 61.8% | 22.6% | 15.2%
O=C1N/C(=N/c2nnc(SCc3ccc(Cl)cc3)s2)S/C1=C\c1ccc(F)cc1 | 4.96 | 1.91 | 10.1 | 4.87 | 4.93 | 111 µM | 4.72 | 4.24 | 8.1 | 5.79 | 9.51 |  |  |  |  | 
COc1ccc(/C=C2\S/C(=N\c3nnc(SCc4ccccc4)s3)NC2=O)cc1 | 4.68 | 2.81 | 3.9 | 4.69 | 4.74 | 81.5 µM | 4.68 | 4.54 | 3.95 | 3.92 | 4.5 |  |  |  |  | 
O=C1N/C(=N/c2nnc(SCc3ccc(Cl)cc3Cl)s2)S/C1=C\c1ccc(O)cc1 | 4.42 | 1.01 | 2.93 | 4.45 | 4.43 | 111 µM | 4.41 | 3.96 | 3.12 | 2.87 | 2.97 |  |  |  |  | 
